Source: patent US8691281B2, “Solid pharmaceutical composition containing 6-oxo-6,7,8,9,10,11-hexahydrocyclohepta (C)chromen-3-yl sulfamate and polymorphs thereof” (Ipsen Pharma S.A.S., priority 2009, dated 2014)

Tests used:
Type in all cases: physicochemical
[1] = Chemical stability at 100° C. by HPLC
Protocol: A stability study was carried out at 100° C. between variety I of compound 1 and the compound 1 described in patent EP 880514. The chemical stability of compound 1 is studied using HPLC with different scores.
(§1) The operating conditions of the HPLC method are the following: • column: Interchim UP3HDO-15XS, 150×4.6 mm,
(§2) • detection: 205 nm, • injection: 20 microliters, • temperature: 40° C., • solution injected: 0.5 mg·mL^−1 (acetonitrile)

[2] = Chemical stability at 150° C. by HPLC
Protocol: A stability study was carried out at 150° C. between compound 1 of form III and the compound 1 described in patent EP 880514. This chemical stability of compound 1 is studied using HPLC
as §1, §2

[3] = Biopharmaceutical Classification System (BCS) class
Description: Compound 1 belongs to Class 2 of the Biopharmaceutical Classification System or BCS proposed by G. Amidon (cf. G. L. Amidon et al., “A theoretical basis for a biopharmaceutical drug classification: the correlation of in vitro drug dissolution and in vivo bioavailability”, Pharm. Res. 12 (1995) 413-420). Its absorption, and therefore its bioavailability, thus strongly depend on the dissolution rate of the pharmaceutical form administered.

[4] = Particle size distribution (Malvern Mastersizer S laser granulometer)
Protocol: • Wavelength: 1.54056 Cu, voltage 40 KV, intensity 40 mA • Measurement range: 3°-30°2 theta • Interval: 0.04°2 theta • Duration of the interval: 4s • Fixed slots: 1.6 mm • Kβ filter (Ni) • Without internal reference • EVA software (v 12.0) for data processing Smart Apex Bruker diffractometer, two-dimensional detector • SMART software for determination of the parameters and orientation of the crystal matrix • SAINT software for data integration and processing • WinGX software for determination of the space group and the structural resolution 6.1.2 DSC • Netzsch DSC 204F1 • Aluminium crucible and pierced lid • Atmosphere: Helium • Initial temperature: 20° C. • Final temperature: 200° C. • Temperature gradient: 5° C.·min^−1 6.1.3 IR • KBr pellet • Bruker IFS28 type spectrometer • Spectral range: 400-4000 cm^−1 6.1.4 NMR of the solid • Bruker Avance 500 MHz spectrometer • MAS (Magic Angle Spinning) 4 mm probe • Bruker XwinNMR software • VACP (Variable Amplitude Cross-Polarization) with MAS (11 kHz) and proton decoupling (spinal 64, 65 kHz) • External reference: Adamantane 6.1.5 Particle Size Distribution • Malvern Mastersizer S laser granulometer • Size of the sample: 30 to 50 mg • Dispersion medium: 0.50% (m/v) Nonidet in water • Mie theory with as refractive indices: particle RI=1.55; imaginary RI=1.00; dispersant RI=1.38 • Sonication time: 60 seconds • Sonication energy: 50 to 60 Hz • Recirculation time: 30 seconds at 2000 rpm^−1 • Obscuration: 15-25% 6.2 Characterization of the Examples 6.2.1 Examples 5 and 5b

[5] = Conversion experiments between the polymorphic forms; settings: after heating, return to ambient temperature
Protocol: The applicant has carried out conversion experiments between the different polymorphic forms of compound 1 which have shown that form III is the form which is stable at a high temperature (T>145° C.). This significant property makes it possible, by heating under vacuum, to eliminate traces of solvent (Polymorphism in the Pharmaceutical Industry, Wiley 2006, Ed Hilfiker; Wiley, ISBN: 978-3-527-31146-0).

NS(=O)(=O)Oc1ccc2c3c(c(=O)oc2c1)CCCCC3 [Compound 1 Patent EP 880514, 6-oxo-6,7,8,9,10,11-hexahydrocyclohepta[c]chromen-3-yl sulphamate, reference compound]
HPLC Purity ([1]; T0): 99.6% | HPLC Purity ([1]; T1 day at 100° C.): 99.1% | HPLC Purity ([1]; T2 days at 100° C.): 98.8% | HPLC Purity ([1]; T3 days at 100° C.): 98.7% | HPLC Purity ([1]; T7 days at 100° C.): 98.0% | HPLC Purity ([2]; T0 (start of stability study at 150° C.)): 99.6% | HPLC Purity ([2]; T2 hours at 150° C.): 7.3%

NS(=O)(=O)Oc1ccc2c3c(c(=O)oc2c1)CCCCC3 [Compound 1, 6-oxo-6,7,8,9,10,11-hexahydrocyclohepta[c]chromen-3-yl sulphamate]
Biopharmaceutical Classification System (BCS) class [3]: Class 2

NS(=O)(=O)Oc1ccc2c3c(c(=O)oc2c1)CCCCC3 [Example 2-2]
particle size distribution D10(%) [4]: 1.2 μm | particle size distribution D50(%) [4]: 5.2 μm | particle size distribution D90(%) [4]: 11.0 μm

NS(=O)(=O)Oc1ccc2c3c(c(=O)oc2c1)CCCCC3 [Example 3]
particle size distribution D10(%) [4]: 0.6 μm | particle size distribution D50(%) [4]: 3.1 μm | particle size distribution D90(%) [4]: 13.7 μm

NS(=O)(=O)Oc1ccc2c3c(c(=O)oc2c1)CCCCC3 [Variety I of compound 1, 6-oxo-6,7,8,9,10,11-hexahydrocyclohepta[c]chromen-3-yl sulphamate]
HPLC Purity ([1]; T0): 99.6% | HPLC Purity ([1]; T1 day at 100° C.): 99.6% | HPLC Purity ([1]; T2 days at 100° C.): 99.7% | HPLC Purity ([1]; T3 days at 100° C.): 99.7% | HPLC Purity ([1]; T7 days at 100° C.): 99.7%

NS(=O)(=O)Oc1ccc2c3c(c(=O)oc2c1)CCCCC3 [form III, 6-oxo-6,7,8,9,10,11-hexahydrocyclohepta[c]chromen-3-yl sulphamate]
behaviour of the form on returning to ambient temperature [5]: remains unchanged | HPLC Purity ([2]; T0 (start of stability study at 150° C.), listed as Compound 1 of form III): 99.4% | HPLC Purity ([2]; T2 hours at 150° C., listed as Compound 1 of form III): 41.2%
